Earlier results, collected in patent publication US6444700B1, “Product and method to reduce stress induced immune suppression” (Abbott Laboratories, priority 1998, dated 2002).

CC1=C(/C=C/C(C)=C/C=C/C(C)=C/CO)C(C)(C)CCC1 [Vitamin A, retinol]
sustained daily intake at which signs of toxicity usually appear (foods and supplements): exceeding 15,000 RE

[Se] [selenium]
intake from foods resulting in fingernail changes and hair loss (seleniferous zone of China): approximately 5 mg per day

CC1=C(/C=C/C(C)=C/C=C/C(C)=C/C=C/C=C(C)/C=C/C=C(C)/C=C/C2=C(C)CCCC2(C)C)C(C)(C)CCC1 [β-Carotene]
toxicity when given in very high doses (compared with vitamin A): not toxic
